“And” between values parts separate entries of the source, which are not always exact repeats. Identical values can stand only once.
Assays:
[1] = system: Pfeiffer cells; assay: CellTiter-Glo cell viability of Pfeiffer cells with IL6; format: cell-based; conditions: Homo sapiens, 96 h, IL6 3 ng/mL, n=4, read-out: percentage of viable Pfeiffer cells, AVG
Experimental: Next, Pfeiffer cells were treated with IL6 (0 or 3 ng/mL), Compound A (0, 136, 272, or 695 nM), and/or Compound B (0, 74, 200, or 421 nM) (n=4 per group) for 96 hours.
Cellular viability was determined using the CellTiter-Glo Luminescent Cell Viability Assay (Promega). The percentage of viable cells was normalized to the groups that were not treated with Compound A or Compound B, and standard deviation was calculated.

[2] = clinical; conditions: human, in vivo
Source text: For in vitro or in vivo studies, the effect amount of Compounds A, B, C, D, E, or ruxolinitib may be adjusted according to the experimental condition. Similarly, the effect amount of Compounds D1, D2, D3, D4, D5, D6, D7, D8, D9, E1, E2, E3, E4, E5, E6, E7, E8, E9, or F, may be adjusted according to the experimental condition for in vitro or in vivo studies. For example, compounds may be used in the amount of 0.001, 0.002, 0.003, 0.004, 0.005, 0.006, 0.007, 0.008, 0.009, 0.01, 0.02, 0.03, 0.04, 0.05, 0.06, 0.07, 0.08, 0.09, 0.1, 0.2, 0.3, 0.4, 0.5, 0.6, 0.7, 0.8, 0.9, 1.0, 1.5, 2.0, 2.5, 3.0, 3.5, 4.0, 5.0, 6.0, 7.0, 8.0, 9.0, or 10.0 μM. In some studies, the in vitro doses of the compounds may be calculated to correspond to the clinical doses of the compounds. The calculation may consider various factors, such as protein binding and plasma concentration. […] It is understood that the in vitro doses may differ, depend on the assay condition and other calculation factors, and that the clinical doses may differ depend on the disease indication and the patient condition.
(§1) In this study, PBMCs were isolated from the whole blood from five MF patients receiving chronic ruxolitinib treatment (rux 1-rux 5). The cells were treated with either vehicle, ruxolitinib, and/or Compound B for 2 hours then stimulated with TPO (50 ng/mL) for 10 minutes. Ruxolitinib at the dose of 1 or 20 nM and Compound B at the dose of 45, 200, or 700 nM were used.
Next, Pfeiffer cells were treated with IL6 (0 or 3 ng/mL), Compound A (0, 136, 272, or 695 nM), and/or Compound B (0, 74, 200, or 421 nM) (n=4 per group) for 96 hours. The doses in this assay may correspond to those used in a clinical setting. […] In addition, the in-vitro dose of 136 nM Compound A may correspond to the potential Caverage detected in patients receiving Compound A at 300 mg once a day.

[3] = system: p-AKT Ser473; assay: flow cytometry of AKT phosphorylation in CD34+ progenitor cells from MF patients; format: cell-based, human; conditions: 2 h, MF progenitor cells
Experimental: (§2) In this example, PBMCs were isolated from whole blood of myelofibrosis (MF) patients who had not received treatments (i.e. naïve patients) or received ruxolitinib (i.e. rux-treated patients). The cells were treated with 0.02, 0.2, or 2.0 μM of Compound B or vehicle (0.1% DMSO in 0.1% FBS/RPMI) for 2 hours at 37° C. The cells were then fixed, permeabilized, and stained for FACS analysis. Antibodies specific to p-AKT Ser473 and pS6RP Ser235/236 were used to detect AKT phosphorylation (p-AKT) and S6RP phosphorylation (p-S6RP) in CD34^+/CD3^−/CD14^−/CD19/CD66^− (BD Biosciences) gated cells using flow cytometry. The percentage of basal (i.e. untreated with TPO) AKT and S6RP phosphorylation were normalized to vehicle control (i.e. “no TPO” values shown in Table 2). A two-tailed paired t-test (GraphPad Prism) was used to calculate p-values. Values of p<0.05 were considered significant.
(§3) Also, PBMC cells were treated with Compound B and with TPO as described above. The percentage of TPO-activated AKT and S6RP phosphorylation were normalized to those of TPO-treated vehicle. […] Also, the inhibition to PI3K signaling was dose-dependent to Compound B.
(§4) Similar studies were conducted with PI3K inhibitors Compounds C and D. PBMC from MF patients had received ruxolitinib (rux) and MF patient had received Compound A. The cells were treated with Compounds C or D at 0, 20.0, 200.0, 2000.0 nM for 2 hours at 37° C. Cells were treated with TPO for 10 minutes. The percentage of basal p-AKT and p-S6RP levels were normalized to vehicle control and those of TPO-treated were normalized to TPO-treated vehicle control. The PI3K inhibitors Compounds C and D had the chemical names of (S)-2-(1-((9H-purin-6-yl)amino)ethyl)-6-fluoro-3-phenylquinazolin-4(3H)-one and (S)-2,4-diamino-6-(((5-chloro-8-fluoro-4-oxo-3-(pyridine-3-yl)-3,4-dihydroquinazolin-2-yl)(cyclopropyl)methyl)amino)pyrimidine-5-carbonitrile, respectively.

[4] = system: pS6RP Ser235/236; assay: flow cytometry of S6RP phosphorylation in CD34+ progenitor cells from MF patients; format: cell-based, human; conditions: 2 h, MF progenitor cells
Experimental: as §2, §3, §4

[5] = system: p-STAT5; assay: flow cytometry of p-STAT5 in TPO-stimulated CD34+ cells from MF patients on chronic ruxolitinib (Example 8); format: cell-based, human; conditions: 2 h, then TPO 50 ng/mL, one value per patient, TPO vehicle = 100
Experimental: as §1
(§5) The treated cells were then fixed, permeabilized and stained for FACS analysis using FACSCalibur analyzed using BD FACSDiva software.

[6] = system: p-S6RP; assay: flow cytometry of p-S6RP in TPO-stimulated CD34+ cells from MF patients on chronic ruxolitinib (Example 8); format: cell-based, human; conditions: for percentage of the p-S6RP levels: 2 h, then TPO 50 ng/mL, one value per patient, TPO vehicle = 100
Experimental: as §1, §5

[7] = system: pSTAT3 (Tyr705); assay: Western blot of pSTAT3 in IL6-stimulated Pfeiffer cells; format: cell-based; conditions: vs 0 ng/mL IL6, normalized to total STAT3, n=1
Experimental: Pfeiffer cells were stimulated for 4 hours with 0, 1, 3, or 10 ng/mL of interleukin 6 (IL6) (n=1 per group) to activate STAT3 (i.e. increase the levels of pSTAT3). The cells were harvested, lysed and analyzed by Western blot. Antibodies specific for pSTAT3 (Tyr705) and total STAT3 were used to detect the levels of pSTAT3 and total STAT3, respectively. Raw pSTAT3 levels were quantified using densitometry software (Image Studio) and normalized to total STAT3 levels.

[8] = 20 nM, Basal, Compound A-treated Cells, vehicle = 100
[9] = 20 nM, Basal, Rux-treated Cells, vehicle = 100
[10] = 20 nM, TPO 10 min, Compound A-treated Cells, TPO-treated vehicle = 100
[11] = 20 nM, TPO 10 min, Rux-treated Cells, TPO-treated vehicle = 100
[12] = 200 nM, Basal, Compound A-treated Cells, vehicle = 100
[13] = 200 nM, Basal, Rux-treated Cells, vehicle = 100
[14] = 200 nM, TPO 10 min, Compound A-treated Cells, TPO-treated vehicle = 100
[15] = 200 nM, TPO 10 min, Rux-treated Cells, TPO-treated vehicle = 100
[16] = 2000 nM, Basal, Compound A-treated Cells, vehicle = 100
[17] = 2000 nM, Basal, Rux-treated Cells, vehicle = 100
[18] = 2000 nM, TPO 10 min, Compound A-treated Cells, TPO-treated vehicle = 100
[19] = 2000 nM, TPO 10 min, Rux-treated Cells, TPO-treated vehicle = 100

Molecule | percentage of p-AKT (pAKT) [3, 8] [%] | percentage of p-AKT (pAKT) [3, 9] [%] | percentage of p-AKT (pAKT) [3, 10] [%] | percentage of p-AKT (pAKT) [3, 11] [%] | percentage of p-AKT (pAKT) [3, 12] [%] | percentage of p-AKT (pAKT) [3, 13] [%] | percentage of p-AKT (pAKT) [3, 14] [%] | percentage of p-AKT (pAKT) [3, 15] [%] | percentage of p-AKT (pAKT) [3, 16] [%] | percentage of p-AKT (pAKT) [3, 17] [%] | percentage of p-AKT (pAKT) [3, 18] [%] | percentage of p-AKT (pAKT) [3, 19] [%] | percentage of p-S6RP (pS6) [4, 8] [%] | percentage of p-S6RP (pS6) [4, 9] [%] | percentage of p-S6RP (pS6) [4, 10] [%] | percentage of p-S6RP (pS6) [4, 11] [%] | percentage of p-S6RP (pS6) [4, 12] [%] | percentage of p-S6RP (pS6) [4, 13] [%] | percentage of p-S6RP (pS6) [4, 14] [%] | percentage of p-S6RP (pS6) [4, 15] [%] | further results
N#CCNC(=O)c1ccc(-c2ccnc(Nc3ccc(N4CCOCC4)cc3)n2)cc1 [Compound A, N-(cyanomethyl)-4-[2-(4-morpholinoanilino)pyrimidin-4-yl]benzamide] | – | – | – | – | – | – | – | – | – | – | – | – | – | – | – | – | – | – | – | – | viability at 0.136 µM ([1]; 136 nM Compound A): 104%; viability at 0.272 µM ([1]; 272 nM Compound A): 99%; viability at 0.695 µM ([1]; 695 nM Compound A): 73%; Cmax ([2]; 300 mg): 695 nM
C[C@H](Nc1ncnc2[nH]cnc12)c1nc2ccc(F)cc2c(=O)n1-c1ccccc1 [Compound C, (S)-2-(1-((9H-purin-6-yl)amino)ethyl)-6-fluoro-3-phenylquinazolin-4(3H)-one] | 89 | 88 | 65 | 65 | 82 | 90 | 59 | 53 | 75 | 75 | 43 | 24 | 82 | 65 | 66 | 84 | 75 | 59 | 70 | 62 | percentage of p-S6RP (pS6) [4, 16]: 53%; percentage of p-S6RP (pS6) [4, 17]: 43%; percentage of p-S6RP (pS6) [4, 18]: 36%; percentage of p-S6RP (pS6) [4, 19]: 42%
N#Cc1c(N)nc(N)nc1N[C@H](c1nc2c(F)ccc(Cl)c2c(=O)n1-c1cccnc1)C1CC1 [Compound D, (S)-2,4-diamino-6-(((5-chloro-8-fluoro-4-oxo-3-(pyridine-3-yl)-3,4-dihydroquinazolin-2-yl)(cyclopropyl)methyl)amino)pyrimidine-5-carbonitrile] | 87 | 83 | 49 | 58 | 57 | 85 | 41 | 50 | 60 | 76 | 19 | 39 | 58 | 58 | 74 | 48 | 48 | 50 | 55 | 39 | percentage of p-S6RP (pS6) [4, 16]: 18%; percentage of p-S6RP (pS6) [4, 17]: 39%; percentage of p-S6RP (pS6) [4, 18]: 25%; percentage of p-S6RP (pS6) [4, 19]: 19%
N#CC[C@H](C1CCCC1)n1cc(-c2ncnc3[nH]ccc23)cn1 [ruxolitinib, reference compound] | – | – | – | – | – | – | – | – | – | – | – | – | – | – | – | – | – | – | – | – | percentage of the p-STAT5 levels ([5]; ruxolitinib 1 nM): 83% and 94% and 97% and 68% and 91%; percentage of the p-STAT5 levels ([5]; ruxolitinib 20 nM): 77% and 63% and 74% and 71% and 62%; in vitro dose corresponding to the Cmin [2]: 1 nM; Cmax ([2]; 15 mg): 20 nM; inhibition at 0.02 µM ([6]; Homo sapiens, ruxolitinib 20 nM alone, TPO-stimulated cells, read-out: p-S6RP levels inhibited or reduced by): 69%; pS6RP levels inhibited ([6]; ruxolitinib 1 nM alone, TPO-stimulated cells): not inhibited; percentage of the p-S6RP levels ([6]; ruxolitinib 1 nM): 101% and 78% and 92% and 129% and 75%; percentage of the p-S6RP levels ([6]; ruxolitinib 20 nM): 42% and 25% and 22% and 34% and 28%
IL6: interleukin 6 (IL6) used to activate STAT3 in Pfeiffer cells | – | – | – | – | – | – | – | – | – | – | – | – | – | – | – | – | – | – | – | – | increase of pSTAT3 levels (STAT3 activation) ([7]; 1 ng/mL IL6, 4 h): 2.8 fold; increase of pSTAT3 levels (STAT3 activation) ([7]; 3 ng/mL IL6, 4 h): 3.8 fold; increase of pSTAT3 levels (STAT3 activation) ([7]; 10 ng/mL IL6, 4 h): 2.5 fold

From patent US20160279135A1, “THERAPIES FOR TREATING MYELOPROLIFERATIVE DISORDERS” (Gilead Sciences, Inc., priority 2013, published 2016)
